Measurements reported in US11661427B2, “Tetrazole derivatives as TRPA1 inhibitors” (Boehringer Ingelheim International GmbH, priority 2020, dated 2023).

Experiments:
[1] = Assay C: Hepatocyte clearance; format: in vitro ADME, human; conditions: hepatocyte suspension, 5% species serum, 1 μM test compound, six hours
Procedure: Evaluation of Hepatocyte Clearance Assay C: Hepatocyte Clearance
The metabolic degradation of the test compound is assayed in a hepatocyte suspension. Hepatocytes (cryopreserved) are incubated in Dulbecco's modified eagle medium (supplemented with 3.5 μg glucagon/500 mL, 2.5 mg insulin/500 mL and 3.75 mg/500 mL hydrocortison) containing 5% species serum.
Following a 30 min preincubation in an incubator (37° C., 10% CO2) 5 μl of test compound solution (80 μM; from 2 mM in DMSO stock solution diluted 1:25 with medium) are added into 395 μl hepatocyte suspension (cell density in the range 0.25-5 Mio cells/mL depending on the species, typically 1 Mio cells/mL; final concentration of test compound 1 μM, final DMSO concentration 0.05%).
The cells are incubated for six hours (incubator, orbital shaker) and samples (25 μl) are taken at 0, 0.5, 1, 2, 4 and 6 hours. Samples are transferred into acetonitrile and pelleted by centrifugation (5 min). The supernatant is transferred to a new 96-deepwell plate, evaporated under nitrogen and resuspended.
Decline of parent compound is analyzed by HPLC-MS/MS
CLint is calculated as follows CL_[…]=Dose/AUC=(C0/CD)/(AUD+clast/k)×1000/60. C0: initial concentration in the incubation [μM], CD: cell density of vital cells [10e6 cells/mL], AUD: area under the data [μM×h], clast: concentration of last data point [μM], k: slope of the regression line for parent decline [h−1].
The calculated in vitro hepatic intrinsic clearance can be scaled up to the intrinsic in vivo hepatic Clearance and used to predict hepatic in vivo blood clearance (CL) by the use of a liver model (well stirred model).

human TRPA1 ion channel = human TRPA1 ion channel (Homo sapiens (Human), UniProt O75762); assay: Assay A: TRPA1 assay (FLIPR calcium assay, AITC agonism, HEK293 cells over-expressing human TRPA1); format: cell-based; conditions: AITC 10 μM, FLIPRtetra, AUC after AITC addition, read-out: hTRPA1 IC50
Procedure: A human HEK293 cell line over-expressing the human TRPA1 ion channel (Perkin Elmer, Product No. AX-004-PCL) is used as a test system for compound efficacy and potency. Compound activity is determined by measuring the effect of compounds on intracellular calcium concentration induced by AITC (Allylisothiocyanat) agonism in a FLIPRtetra system (Molecular Devices).
Cells are grown in culture medium (MEM/EBSS medium with 10% FCS and 0.4 mg/ML Geneticin). […] For sub-culturing cells are detached from flasks by Versene. At the day before the assay, cells are detached, washed twice with medium (MEM/EBSS medium with 10% FCS) and 20000 cells in 20 μl/well are seeded to Poly D-Lysin biocoated 384-well plates (black, clear bottom, Cat. 356697) from Corning. Plates are incubated for 24 hours at 37° C./5% CO2 before use in the assay.
The test compounds are dissolved in 100% DMSO at a concentration of 10 mM and in a first step diluted in DMSO to a concentration of 5 mM, followed by serial dilution steps in 100% DMSO. Dilution factor and number of dilution steps may vary according to needs. Typically 8 different concentrations by 1:5 dilutions are prepared, further intermediate dilutions (1:20) of the substances are carried out with HBSS/HEPES buffer (1×HEPES, Cat. 14065 from Gibco, 20 mM HEPES, Cat. 83264 from SIGMA, 0.1% BSA Cat. 11926 from Invitrogen, pH 7.4
At the assay day cells are washed 3× with assay puffer, 20 μL buffer remaining in the wells after washing. 10 μL Ca6 kit (Cat. R8191 MolecularDevices) loading buffer in HBSS/HEPES is added to the cells and the plates are incubated with lid for 120 minutes at 37°/5% CO2. 10 μL of compound or controls in HBSS/HEPES buffer/5% DMSO from the intermediate dilution plate are carefully added to the wells. […] Finally 10 μL of the agonist AITC 50 μM dissolved in HBSS/HEPES buffer/0.05% DMSO (final concentration 10 μM) is added to the wells followed by an additional read on the FLIPRtetra device for 10 minutes. The area under the signal curve (AUC) after AITC addition is used for IC50/% inhibition calculations
Each assay microtiter plate contains wells with vehicle (1% DMSO) controls instead of compound as controls for AITC induced luminescence (100% CTL; high controls) and wells with vehicle controls without AITC as controls for non-specific changes in luminescence (0% CTL; low controls).
The analysis of the data is performed by the calculation of the area under signal curve of the individual wells. Based on this values the % value for the measurement of each substance concentration is calculated (AUC(sample)−AUC(low))*100/(AUC(high)−AUC(low)) using MegaLab software (in house development). The IC50 values are calculated from the % control values using MegaLab software. Calculation: [y=(a−d)/(1+(x/c)^B)+d], a=low value, d=high value; x=conc M; c=IC50 M; b=hill; y=% ctrl

[2] = Assay B: Microsomal clearance; format: in vitro ADME; conditions: pooled liver microsomes, 1 μM test compound, 37° C.; Tables 5 and 6 of the same assay are headed human LM [% Qh]
Procedure: Evaluation of Microsomal Clearance Assay B: Microsomal Clearance:
The metabolic degradation of the test compound is assayed at 37° C. with pooled liver microsomes. The final incubation volume of 100 μl per time point contains TRIS buffer pH 7.6 at RT (0.1 M), magnesium chloride (5 mM), microsomal protein (1 mg/ml) and the test compound at a final concentration of 1 μM.
Following a short preincubation period at 37° C., the reactions are initiated by addition of beta-nicotinamide adenine dinucleotide phosphate, reduced form (NADPH, 1 mM) and terminated by transferring an aliquot into solvent after different time points (0, 5, 15, 30, 60 min). Additionally, the NADPH-independent degradation is monitored in incubations without NADPH, terminated at the last time point. The [%] remaining test compound after NADPH independent incubation is reflected by the parameter c(control) (metabolic stability). The quenched incubations are pelleted by centrifugation (10000 g, 5 min).
An aliquot of the supernatant is assayed by LC-MS/MS for the amount of parent compound. The half-life (t1/2 INVITRO) is determined by the slope of the semilogarithmic plot of the concentration-time profile.

Sequence of human TRPA1 ion channel (O75762 whole entry): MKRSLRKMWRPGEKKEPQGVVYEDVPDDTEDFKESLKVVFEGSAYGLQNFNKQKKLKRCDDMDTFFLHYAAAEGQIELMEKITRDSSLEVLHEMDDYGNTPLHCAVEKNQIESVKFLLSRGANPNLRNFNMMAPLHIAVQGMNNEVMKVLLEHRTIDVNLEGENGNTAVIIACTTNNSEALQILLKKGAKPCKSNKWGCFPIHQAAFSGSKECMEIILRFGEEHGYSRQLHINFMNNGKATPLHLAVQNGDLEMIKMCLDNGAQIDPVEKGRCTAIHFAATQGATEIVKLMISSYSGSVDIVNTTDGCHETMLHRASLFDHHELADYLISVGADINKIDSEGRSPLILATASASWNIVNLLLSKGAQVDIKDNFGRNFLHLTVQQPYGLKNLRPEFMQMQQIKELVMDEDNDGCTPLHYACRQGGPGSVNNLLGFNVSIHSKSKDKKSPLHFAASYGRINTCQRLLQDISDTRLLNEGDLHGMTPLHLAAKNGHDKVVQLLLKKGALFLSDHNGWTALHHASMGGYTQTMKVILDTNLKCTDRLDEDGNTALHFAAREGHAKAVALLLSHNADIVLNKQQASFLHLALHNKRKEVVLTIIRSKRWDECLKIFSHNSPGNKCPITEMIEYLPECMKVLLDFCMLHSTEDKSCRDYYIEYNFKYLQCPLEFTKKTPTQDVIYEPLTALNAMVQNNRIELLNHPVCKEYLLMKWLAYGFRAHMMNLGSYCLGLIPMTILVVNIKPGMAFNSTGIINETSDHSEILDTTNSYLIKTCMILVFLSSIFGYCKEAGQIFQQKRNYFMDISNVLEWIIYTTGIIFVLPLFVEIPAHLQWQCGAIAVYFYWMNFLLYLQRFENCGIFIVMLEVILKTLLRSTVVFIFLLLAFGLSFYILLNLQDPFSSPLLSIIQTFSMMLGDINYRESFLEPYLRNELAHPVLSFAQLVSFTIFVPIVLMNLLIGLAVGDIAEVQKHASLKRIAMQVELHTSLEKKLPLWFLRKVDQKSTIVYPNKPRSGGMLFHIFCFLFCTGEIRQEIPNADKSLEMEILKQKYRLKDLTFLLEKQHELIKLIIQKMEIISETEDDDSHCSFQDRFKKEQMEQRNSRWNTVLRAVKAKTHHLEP

Row | human Hepatocytes [1] [% Qh] | IC50 (human TRPA1 ion channel) [nM] | Assay B result (column head not printed in Table 4) [2] [%] | SMILES
1 | 4 | 24 | < 23 | Cc1ccc([C@@H](O)Cn2nnc(Cn3cnc4oc(C)c(C(N)=O)c4c3=O)n2)cc1 [Example 1, 3-({2-[(2R)-2-hydroxy-2-(4-methylphenyl)ethyl]-2H-1,2,3,4-tetrazol-5-yl}methyl)-6-methyl-4-oxo-3H,4H-furo[2,3-d]pyrimidine-5-carboxamide]
2 | 23 | 10 | < 23 | Cc1c(C(N)=O)oc2ncn(Cc3nnn(C[C@H](O)c4cc5ccccc5s4)n3)c(=O)c12 [Example 2]
3 | 5 | 10 | < 23 | Cc1c(C(N)=O)oc2ncn(Cc3nnn(C[C@H](O)c4ccc(Cl)s4)n3)c(=O)c12 [Example 3]
4 | 30 | 10 | < 23 | Cc1oc2ncn(Cc3nnn(C[C@H](O)c4cc5ccc(F)cc5s4)n3)c(=O)c2c1C(N)=O [Example 4]
5 | 23 | 11 | < 23 | Cc1oc2ncn(Cc3nnn(C[C@H](O)c4cc5ccccc5s4)n3)c(=O)c2c1C(N)=O [Example 5]
6 | 24 | 13 | < 23 | Cc1c(C(N)=O)oc2ncn(Cc3nnn(C[C@H](O)c4cc5cc(Cl)ccc5o4)n3)c(=O)c12 [Example 6]
7 | 15 | 20 | < 23 | Cc1oc2ncn(Cc3nnn(C[C@H](O)c4ccc(Cl)s4)n3)c(=O)c2c1C(N)=O [Example 7]
8 | 14 | 21 | < 23 | Cc1ccc([C@@H](O)Cn2nnc(Cn3cnc4oc(C(N)=O)c(C)c4c3=O)n2)cc1 [Example 8]
9 | 16 | 23 | < 23 | Cc1oc2ncn(Cc3nnn(C[C@H](O)c4ccc(Cl)cc4)n3)c(=O)c2c1C(N)=O [Example 9]
10 | <4 | 23 | < 23 | Cc1c(C(N)=O)oc2ncn(Cc3nnn(C[C@H](O)c4ccc(Cl)cc4)n3)c(=O)c12 [Example 10]
11 | 8 | 26 | < 23 | Cc1oc2ncn(Cc3nnn(C[C@H](O)c4cc5ccccc5o4)n3)c(=O)c2c1C(N)=O [Example 11]
12 | 16 | 29 | < 23 | Cc1oc2ncn(Cc3nnn(C[C@H](O)c4ccc(Br)cc4)n3)c(=O)c2c1C(N)=O [Example 12]
13 | 22 | 49 | 26 | Cc1oc2ncn(Cc3nnn(C[C@H](O)c4cc5cccc(F)c5o4)n3)c(=O)c2c1C(N)=O [Example 13]
14 | 42 | 12 | 42 | Cc1oc2ncn(Cc3nnn(C[C@H](O)c4cc5cc(Cl)ccc5o4)n3)c(=O)c2c1C(N)=O [Example 14]
15 | 21 | 18 | < 23 | Cc1oc2ncn(Cc3nnn(C[C@H](O)c4cc5cc(F)ccc5o4)n3)c(=O)c2c1C(N)=O [Example 15]
